The values below come from patent US20230382928A1, “EUROPIUM(III) COMPLEXES AS PH SENSORS” (CISBIO BIOASSAYS, priority 2020, published 2023).

The nature of data set [1]: Absorption spectra / molar extinction coefficient (Beer-Lambert). Format: physicochemical. On the procedure:
The properties of representative complexes of the invention (complexes 14, 18, 21, 78a, 78b, 88a, 88b, 93, 104) were investigated. The presence of the Boc-group was not predicted to alter these properties. The experiments were thus carried out with the Boc group for the functionalized complexes. The absorption and emission spectra were recorded in a pH gradient (pH 4 to pH 10).
(§1) Traditionally, molar extinction coefficients, ε, are calculated using the Beer-Lambert equation and involve measuring the absorbance of a series of solutions of a complex at different known concentrations. A plot of absorbance at a particular wavelength against concentration allows determination of ε from the gradient of the linear correlation. The quantum yield (QY) of the complexes increases as the pH decreases. For complexes 78b, 88a, 88b and 93, the quantum yield at pH 8 is approaching 0 meaning that the complexes are therefore hardly emissive at physiological pH and conversely, these complexes are very bright at pH 4.
This could be useful as excitation at, or near, this wavelength would allow equal excitation of both the unprotonated and protonated complex, which exist in a pH-dependent equilibrium in solution. An isosbestic point was not observed for Complex 14.

A short description of data set [2]: pKa determination from emission lifetime variation versus pH. The settings on record: 295 K, I = 0.1M NaCl.
Method: (§2) An emission lifetime value at each pH was obtained by plotting the decay of the emission lifetime over time and fitting the curve to a simple exponential decay model. The pKa values of the complexes were determined for the reversible protonation.
A short description of data set [3]: Quantum yield of europium complexes at different pH. Format: physicochemical. The settings on record: text gives the same values in %. The procedure:
The properties of representative complexes of the invention (complexes 14, 18, 21, 78a, 78b, 88a, 88b, 93, 104) were investigated. The presence of the Boc-group was not predicted to alter these properties. The experiments were thus carried out with the Boc group for the functionalized complexes. […]
as §1

Data set [4] can be described thus: Excited state (emission) lifetime at different pH. The class given is physicochemical.
Method: as §2
Data set [5] is described as follows: Time-gated emission intensity, pH 4/pH 8 ratio. The class given is physicochemical. The conditions noted are these: λem=613.5 nm. The source says:
Data was normalised for a 60 μs delay at pH 4.
Data were normalised for a 60-460 μs time window at pH 4. Measurements were taken in NH4CH3CO2 (pH 4 and 5), MES (pH 5.5, 6 and 6.5), HEPES (pH 7) and NH4HCO3 (pH 8) buffers (all 0.1 M with 0.1 M NaCl).
A benefit of the long-lived lifetime of emission for the lanthanides is the possibility of performing time-gated measurements. Further to this, as a result of the ‘switch-on’ nature of complex 18, the unprotonated and protonated forms differ in emission lifetime. These properties allow the unique opportunity to control, to some degree, the apparent pKa value as well as the relative degree of ‘switching-on’ of the probe by changing the time window. This aspect is illustrated in practice using appropriate buffers of different pH (in the presence of 0.1 M NaCl) in FIG. 28.
By measuring the emission intensity of the hypersensitive ΔJ=2 band at different pH with a longer delay time after excitation (FIG. 28 top), a shallower curve was obtained (a lower apparent pKa).
A summary of the ratios of emission intensity (at λem=613.5 nm) at pH 4 (sensor on) and pH 8 (sensor off), where the emission signal was measured between different time windows, for complex 18 is presented in Table 4.
The extent of the switch-on response of the complex may be quantified, for comparison purposes, as the ratio of the emission intensity at the maximum of the ΔJ=2 band at pH 4, when the sensor is fully switched ‘on’, and pH 8, when the sensor is effectively ‘off’.

One may read the pKa as the pH at which an ionisable group is half protonated. Low readings indicate a stronger acid or weaker base, high ones a weaker acid or stronger base. For `CCN(CC)c1cc(C#Cc2cc(CN3CCN(Cc4cccc(P(C)(=O)[O-])n4)CCN(Cc4cc(C#Cc5ccc(OC)c(N(CC)CC)c5)cc(P(C)(=O)[O-])n4)CC3)nc(P(C)(=O)[O-])c2)ccc1OC.[Eu+3]` [Complex 18], the “λexc (nm)” value in data set [1] (excitation wavelength) turned out to be 328 nm. Moreover, the “ε” value in data set [1] (molar extinction coefficient at λexc) is 35000 M⁻¹ cm⁻¹. This compound displayed a pKa in data set [2] of 6.3. Also, in data set [3] (pH 4), the Q.Y. pH 4 was 17.6%. Besides, the Q.Y. pH 8 in data set [3] (pH 8) worked out at 0.2%. Also, the Excited state lifetime in data set [4] (pH 3) was 1 ms; in data set [4] (pH 4, listed as 18), 1 ms; in data set [4] (pH 4, listed as drawing 63) it was 1.00 ms; in data set [4] (pH 5) it was 0.96 ms; in data set [4] (pH 6) it was 0.78 ms; in data set [4] (pH 7), 0.47 ms. The Excited state lifetime in data set [4] (pH 8) and in data set [4] (pH 9) was 0.34 ms each time. For the same compound, the “ratio of emission intensity pH 4/pH 8” value in data set [5] (time window 60-460 μs) is on record as 32; in data set [5] (time window 1000-2000 μs) it was 227; in data set [5] (time window 1500-2500 μs), 465.
